ChEMBL document CHEMBL3507680, “University of Dundee, Gates Library screen for HepG2 cell viability”

Assay: Human HepG2 cell viability assay in 384 well format
Type: toxicity, cell-based
Design: dose 125 nL, time 70.5 hour; cytotoxicity at 70.5 h: concentration not given beside the values
Settings: HepG2 cells, read-out: Inhibition

Row | Compound | cytotoxicity at 70.5 h [%]
1 | CCn1ccnc1CN1CCCC(CO)(Cc2cccc(OC)c2)C1 (stereo not drawn) | -14.1
2 | COCCO[C@H]1CCN(C(=O)c2cnccn2)[C@H]1Cc1ccncc1 | -1.32
3 | COCC1CN(C(=O)Cc2cccs2)Cc2c1cnn2C (stereo not drawn) | 21.2
4 | O=C(c1cscn1)N1CC[C@H]2[C@@H]1CCC(=O)N2c1ccccc1 | 1.24
5 | CNC(=O)[C@@]12CCO[C@@H]1CCN(S(=O)(=O)c1cccc(F)c1)C2 | -10.2
6 | O=C(c1ccnnc1)N1CCc2ncnc(C3CCOC3)c2CC1 (stereo not drawn) | -9.59
7 | O=C(c1ccncc1)N1CCc2ncnc(C3CCOC3)c2CC1 (stereo not drawn) | -10.1
8 | O=C(CC1CCCC1)N1C[C@@H]2CN(Cc3ccoc3)CCO[C@@H]2C1 | -11.5
9 | COc1ncnc2c1CCN(CC1CCOC1)CC2 (stereo not drawn) | -13.6
10 | O=C(N1CCCC1)N1C[C@@H]2CN(Cc3ccoc3)CCO[C@@H]2C1 | -11.3
11 | Cc1cccc(CN2CC[C@H]3C[C@@H](C)O[C@@H]3C2)n1 | 10.9
12 | CCOCC1CN(C(=O)c2cscn2)Cc2cnn(CC3CC3)c21 (stereo not drawn) | 8.12
13 | CCOCC1CN(C(=O)Cc2ccccn2)Cc2cnn(CC)c21 (stereo not drawn) | 10.8
14 | Cc1n[nH]c(C)c1CCC(=O)NCC1COc2ccccc2C1 (stereo not drawn) | -2.08
15 | CCn1ccnc1CN(C)C1CCCN(CCCc2ccccc2)C1 (stereo not drawn) | 18.6
16 | CSc1ccc2cc(CN(C)CCCN(C)C)c(=O)[nH]c2c1 | -11.2
17 | COCCn1ccnc1C1CCCN(C(=O)CSc2nnc(C)o2)C1 (stereo not drawn) | -5.99
18 | CC1c2cccn2CCN1C(=O)CCCc1nc(-c2ccco2)no1 (stereo not drawn) | -7.42
19 | CCc1nccn1CCC(=O)N1CC[C@@H](c2sccc2C)[C@H](O)C1 | -12.3
20 | Cc1ccnc(N2CCN(C[C@]3(O)CCCN4CCCC[C@@H]43)CC2)c1 | 1.52
21 | CC(C)=CCCC(C)CN1CCC(n2cc(C(C)(C)O)nn2)CC1 (stereo not drawn) | -8.45
22 | Cc1ccc(-c2ccnc(NC(C)c3n[nH]c(=O)[nH]3)n2)c(C)n1 (stereo not drawn) | -12.8

Row | Compound | cytotoxicity at 70.5 h [%]
23 | O=c1n(CC2COCCO2)nc(CC2CCNCC2)n1-c1ccccc1 (stereo not drawn) | -3.66
24 | Cc1cnc(C(=O)NCC2CCOc3ccccc3C2)cn1 (stereo not drawn) | 14.4
25 | Cn1ncc(N2CCOC(CCNC(=O)NC(C)(C)C)C2)cc1=O (stereo not drawn) | 19.2
26 | COc1cccc(OCCCc2cncc(C(N)=O)c2)c1 | -13.7
27 | COCCCN1CC2(CCN(Cc3ncc[nH]3)CC2)CC1=O | -4.09
28 | COc1ccc2c(c1)OCC(Cc1ccnc(N)n1)C2 (stereo not drawn) | 8.07
29 | O[C@H]1[C@H](n2cc(-c3ccccn3)nn2)c2ccccc2C12CCNCC2 | -3.68
30 | COCCCN1C(=O)CC[C@H]2CN(c3cc(C(N)=O)ccn3)CC[C@H]21 | -7.97
31 | CC(=O)c1cccc(CN2CCCC23CCN(c2ccccn2)CC3)c1 | -4.38
32 | OC(c1ccccn1)C1CCN(Cc2cc3n(n2)CCCNC3)CC1 (stereo not drawn) | -21
33 | Cc1nccn1CCC1CCCCN1Cc1cnc(N(C)C)nc1 (stereo not drawn) | -3.91
34 | O=C(N1CC(c2cccnc2)C1)C1(c2ccc(F)cc2)CCOCC1 | 3.01
35 | C[C@@H]1CN(S(=O)(=O)c2ccc(F)cc2Cl)C[C@]1(C)O | -0.172
36 | COc1ccc(OC)c2c(C)cc(N(C)CCCO)nc12 | 4.59
37 | CC(C)(C)c1oc(C(N)=O)cc1CN1CCCCC(N)C1 (stereo not drawn) | -7.89
38 | COc1ccc2c(c1)OCC(CNC(=O)c1cc(C(C)C)on1)C2 (stereo not drawn) | -20.5
39 | CCN(CC)C(=O)[C@@H]1C[C@@H](NC(=O)c2cccn2C2CC2)CN1C | -7.5
40 | COc1cccc([C@@H](C)n2ccnc2-c2cc3n(n2)CCNC3)c1 | -10.2
41 | CC(C)c1nnc2n1CCN(Cc1ccc3c(c1)OCO3)CC2 | -11.5
42 | COc1cccc(N2CCN(Cc3cccc(CCN)c3)CC2=O)c1 | -6.65
43 | COCCn1c(=O)n(Cc2ccc(Cl)s2)c2cc(C(=O)O)ccc21 | -10.7
44 | c1cnn(CCC2CCCCN2Cc2cnc(C3CCCCC3)nc2)c1 (stereo not drawn) | -8.97

Row | Compound | cytotoxicity at 70.5 h [%]
45 | O=C1N(CCCc2ccccc2)CCCC1(O)CNCC1CCCCC1 (stereo not drawn) | 6.76
46 | COc1cc(O)ccc1CN1CCN(C2CCc3ccccc3C2)CC1 (stereo not drawn) | -3.26
47 | CC(C)(N)c1cn(C2CCN(C(=O)CCC3CCCCC3)CC2)nn1 | -5.04
48 | CC(=O)N1C[C@H](NC(=O)c2csc(C(C)C)c2)[C@@H](C(C)C)C1 | 14.4
49 | C=Cc1cccc(CN(Cc2cnn(C)c2)C2CC2)c1 | -9.54
50 | CN1CCC(NCC2(O)CCCN(Cc3ccccc3F)C2=O)CC1 (stereo not drawn) | -4.92
51 | CCN1CC(C(=O)N2CCc3cc(C(N)=O)n(C)c3C2)CC1=O (stereo not drawn) | -2.91
52 | Nc1cc(C(=O)N2CCC(Oc3cccc(C(F)(F)F)c3)CC2)ccn1 | -3.83
53 | CCO[C@H]1CN(C)C[C@@H]1NC(=O)c1cc(C)nc2ccc(C)cc12 | -6.33
54 | CCN(CC)S(=O)(=O)N1CCCC(c2nccn2Cc2cccnc2)C1 (stereo not drawn) | -5.79
55 | COc1cccc2c1OCC(NCc1cnn(-c3ccccc3F)c1)C2 (stereo not drawn) | -0.785
56 | Cc1cc2ccccc2n1CCC(=O)N1CCCCC1CCO (stereo not drawn) | -6.95
57 | Cc1nc2c(c(NC3CC3)n1)CCN(C(=O)CCc1cccnc1)CC2 | 12.4
58 | CNc1nc(C(=O)N2C[C@H]3CC[C@@H]2CN(C2CCOCC2)C3)cs1 | -10.2
59 | CCc1nc(C)c(C2CC(=O)Nc3c2c(C(C)(C)C)nn3C)[nH]1 (stereo not drawn) | 0.46
60 | CC(C)=CCN1C(=O)[C@H]2CC[C@@H]1CN(c1ncccn1)C2 | -21
61 | CC(=O)c1cn(CC(=O)N2CCC(O)(CO)CC2)c2ccccc12 | -0.902
62 | O=C(O)C1(n2ccc(-c3ccco3)n2)CCN(Cc2ccsc2)CC1 | -1.95
63 | Cn1ncc2c(N3CCN4CCCCC4C3)nc(C3CCCC3)nc21 (stereo not drawn) | -0.0598
64 | Cc1nc(C(=O)N2CCN(C(=O)C3CCC3)[C@@H]3CS(=O)(=O)C[C@@H]32)cs1 | 2.83
65 | C=C(C)COc1ccccc1C(=O)N1CCC(C(=O)NCC)C1 (stereo not drawn) | -0.0263
66 | OC(c1ccccn1)C1CCN(Cc2cc3n(n2)CCNC3)CC1 (stereo not drawn) | 17.1

Row | Compound | cytotoxicity at 70.5 h [%]
67 | CCC(CO)N(Cc1cccnc1)C(=O)c1ccc(C)[nH]c1=O (stereo not drawn) | -7.73
68 | Cc1cc(C(F)(F)F)nc(CNc2nc(C)nc3c2cnn3C)n1 | -7.38
69 | Cc1nc2cc(C(=O)N3C[C@@H](C(=O)O)[C@H](C4CC4)C3)ccc2[nH]1 | -3.58
70 | Cc1nc(C)c(C)c(NCc2cnn3cccnc23)n1 | 3.17
71 | O=C(c1cccnc1)C1CCCN(c2nnc(C3CC3)o2)C1 (stereo not drawn) | -1.21
72 | CCCN1CCC(Cc2noc(-c3[nH]cnc3C)n2)CC1 | 6.08
73 | Cc1nn(C)c2nc(N(C)CCN(C)C3CCCC3)sc12 | 5.16
74 | O=C(c1ccccc1)N1CCCC(Nc2ccc(F)cc2)C1 (stereo not drawn) | -1.68
75 | COc1cccc([C@@H]2CCN(Cc3[nH]nc(C)c3Cl)C[C@H]2O)c1 | -22.1
76 | Cc1ccc(-c2cc(-c3nc(CN4CCN(C)CC4)no3)[nH]n2)s1 | -10.5
77 | C[C@@H]1CN(C(=O)CSc2nncn2C)C[C@@]1(O)C1CC1 | -4.21
78 | Cc1cc(C(=O)N2CC[C@@]3(O)CCN(S(C)(=O)=O)C[C@H]3C2)c(C)n1C | 18.6
79 | CC(C)c1nccn1Cc1cc(C(=O)NCC(C)n2ccnc2)n[nH]1 (stereo not drawn) | -6.98
80 | Cc1ccc(C(C(=O)NCCN2CCC(CO)CC2)N(C)C)cc1 (stereo not drawn) | 27.1
81 | CCn1cc(CN(C)c2nc(C)c3ccc(S(C)(=O)=O)cc3n2)cn1 | -5.64
82 | COCCN(Cc1ccncc1)C(=O)CCSCc1ccc(F)cc1 | 20
83 | CC(C(=O)N(C)C)N1CCc2onc(-c3cccc(F)c3)c2C1 (stereo not drawn) | -5.12
84 | C=C(C)COc1cccc(C(=O)N(C)C(C)c2c(C)n[nH]c2C)c1 (stereo not drawn) | -4.42
85 | COc1cnc(N2CCN(C)CC2)nc1-c1ccnn1C | -6.6
86 | CN(CCc1cnn(C)c1)C(=O)CN1C(=O)OC[C@@H]1c1ccccc1 | -5.22
87 | Cc1cc(C)nc(CCNc2nccc(CCC(F)(F)F)n2)n1 | 8.35
88 | Cc1cccc2[nH]c(C3CCCN(Cc4ccc(CO)o4)C3)nc12 (stereo not drawn) | 4.96

Row | Compound | cytotoxicity at 70.5 h [%]
89 | CC(C)[C@@H]1CN(C(=O)C2(c3ccccc3)CCN(C)CC2)C[C@H]1N(C)C | 9.05
90 | CC(C)CN1CC(C(=O)NCCc2c[nH]cn2)CC1=O (stereo not drawn) | -0.927
91 | CC(=O)NCC1CCCN(Cc2nc(Cc3ccccc3F)no2)C1 (stereo not drawn) | 0.817
92 | COc1cc2c(cc1-c1nc3c(cnn3C(C)C)[nH]1)OCO2 | -0.0981
93 | c1ccc(OC2COC3(CCN(Cc4ccccn4)CC3)C2)cc1 (stereo not drawn) | 25.2
94 | Cn1ccnc1CN1CCC2(CC1)CCN(c1cncnc1)C2=O | -3.96
95 | Cn1cc(C(=O)N2CC[C@@H]3[C@@H]2CCN3Cc2cccc(C#N)c2)cn1 | 0.809
96 | Cc1ccccc1N1CC2(CCN(Cc3nccn3C)C2)CC1=O (stereo not drawn) | -13.1
97 | COCCN1C(=O)CCC12CCCN(Cc1nccs1)CC2 (stereo not drawn) | -6.77
98 | Cc1cnc(C(=O)N2CC[C@H]3[C@@H]2CCC(=O)N3c2cccnc2)cn1 | -14.6
99 | O=C(C1CC(F)(F)C1)N1C[C@@H]2CN(Cc3ccsc3)CCO[C@@H]2C1 | -14.8
100 | CNC(=O)[C@@]12CCO[C@@H]1CCN(Cc1cccc(C)c1)C2 | -12.5
101 | O=C(C1CCOCC1)N1C[C@@H]2CN(Cc3ccsc3)CCO[C@@H]2C1 | -10.4
102 | Cc1ncnc2c1CCN(CC1CCOC1)CC2 (stereo not drawn) | -8.05
103 | O=C(Cc1cccs1)N1C[C@@H]2CN(Cc3ccoc3)CCO[C@@H]2C1 | -15.2
104 | Cc1nc(CN2CCC3(CC2)CCN(C(=O)c2cscn2)C3)cs1 | -13.7
105 | Cc1ccoc1C(=O)N1CC[C@H]2[C@@H]1CCC(=O)N2c1cccnc1 | -14.8
106 | c1ccc(O[C@H]2CO[C@@]3(CCCN(Cc4nccs4)C3)C2)nc1 | 42.1
107 | O=C1CC2(CCN(Cc3cccnc3)C2)CN1c1cncnc1 (stereo not drawn) | -2.69
108 | O=C(NCc1cccnc1)[C@@H]1CC[C@@H]2[C@@H](CCN2c2ncc(F)cn2)O1 | -3.65
